From US8686044B2, “Amide derivative, pest control agent containing the amide derivative, and use of the amide derivative” (Mitsui Chemicals Agro, Inc., priority 2008, dated 2014)

How the values were obtained:
Assay type in all cases: in vivo
[1] = system: Spodoptera litura; assay: Pesticidal test against Spodoptera litura (cabbage leaf dip); conditions: foliar, 144 h, concentration 1 ppm, 2-stage larvae, examined after 6 days, 25° C., read-out: pesticidal rate
Procedure, shortened: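 Cabbage leaf pieces dipped 30 seconds in compound solution at a predetermined concentration and air-dried, then offered to second-stage larvae, five per group in two replicates. Held at 25° C. Living and dead larvae counted after 6 days.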

[2] = system: Plutella xylostella; assay: Pesticidal test against Plutella xylostella (cabbage leaf dip); conditions: foliar, 144 h, concentration 1 ppm, 2-stage larvae, examined after 6 days, 25° C., read-out: pesticidal rate
Procedure, shortened: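 Cabbage leaf pieces dipped 30 s in test solution at a predetermined concentration, air-dried, then offered to 2nd-instar larvae, five per group in duplicate. Held at 25° C; living and dead larvae counted after 6 days.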

[3] = system: Laodelphax striatellus; assay: Pesticidal test against Laodelphax striatellus (rice seedling spray); conditions: 144 h, concentration 100 ppm, 3-stage larvae, examined after 6 days, 25° C., read-out: pesticidal rate
Procedure, shortened: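 Rice seedlings sprayed with 2.5 ml acetone solution of compound at a predetermined concentration, air-dried, then infested with third-stage Laodelphax striatellus larvae in capped water-containing tubes at 25 °C. Living and dead insects counted after 6 days; ten larvae per group, two replicates.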

[4] = system: Musca domestica; assay: Pesticidal test against Musca domestica (petri dish dry film); conditions: 24 h, concentration 100 ppm, female adults, examined after 1 day, 25° C., read-out: pesticidal rate
Procedure, shortened: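 Dry film from 1 ml acetone solution of compound at a predetermined concentration, air-dried in a 9 cm petri dish; female adult flies released and dish capped. Held at 25° C; living and dead counted after 1 day. Five insects per group, two replicates.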

[5] = system: Blattella germanica; assay: Pesticidal test against Blattella germanica (petri dish dry film); conditions: 24 h, concentration 100 ppm, female adults, examined after 1 day, 25° C., read-out: pesticidal rate
Experimental: Pesticidal Test against Blattella germanica
1 ml of an acetone solution in which a test compound had been prepared at a predetermined concentration was added dropwise to a petri dish having a diameter of 9 cm, and air-dried, and then the female adults of Blattella germanica were released and the petri dish was capped. They were left to stand in a thermostatic chamber at 25° C., and the numbers of the living pests and the dead pests were examined after 1 day. The test was carried out with five larvae per group in two replicates.

N#Cc1cccc(C(=O)Nc2cccc(C(=O)Nc3c(Br)cc(C(F)(C(F)(F)F)C(F)(F)F)cc3Br)c2F)c1 [6-1124]
≥ 70%: pest or weed control at 1 ppm [1] | pest or weed control at 1 ppm [2] | pest or weed control at 100 ppm [3] | pest or weed control at 100 ppm [4] | pest or weed control at 100 ppm [5]

O=C(Nc1c(Br)cc(C(F)(C(F)(F)F)C(F)(F)F)cc1Br)c1cccc(NC(=O)c2c(F)cccc2F)c1F [6-1126]
≥ 70%: pest or weed control at 1 ppm [1] | pest or weed control at 1 ppm [2] | pest or weed control at 100 ppm [3] | pest or weed control at 100 ppm [4] | pest or weed control at 100 ppm [5]

O=C(Nc1cccc(C(=O)Nc2c(Br)cc(C(F)(C(F)(F)F)C(F)(F)F)cc2Br)c1F)c1ccc(Cl)nc1 [6-1147]
≥ 70%: pest or weed control at 1 ppm [1] | pest or weed control at 1 ppm [2] | pest or weed control at 100 ppm [3] | pest or weed control at 100 ppm [4] | pest or weed control at 100 ppm [5]

O=C(Nc1cccc(C(=O)Nc2c(Br)cc(C(F)(C(F)(F)F)C(F)(F)C(F)(F)F)cc2Br)c1F)c1cccc(F)c1 (stereo not shown) [6-1184]
≥ 70%: pest or weed control at 1 ppm [1] | pest or weed control at 1 ppm [2] | pest or weed control at 100 ppm [3] | pest or weed control at 100 ppm [4] | pest or weed control at 100 ppm [5]

O=C(Nc1c(Br)cc(C(F)(C(F)(F)F)C(F)(F)C(F)(F)F)cc1Br)c1cccc(NC(=O)c2c(F)cccc2F)c1F (stereo not shown) [6-1204]
≥ 70%: pest or weed control at 1 ppm [1] | pest or weed control at 1 ppm [2] | pest or weed control at 100 ppm [3] | pest or weed control at 100 ppm [4] | pest or weed control at 100 ppm [5]

O=C(Nc1cccc(C(=O)Nc2c(Br)cc(C(F)(C(F)(F)F)C(F)(F)C(F)(F)F)cc2Br)c1F)c1cccnc1Cl (stereo not shown) [6-1218]
≥ 70%: pest or weed control at 1 ppm [1] | pest or weed control at 1 ppm [2] | pest or weed control at 100 ppm [3] | pest or weed control at 100 ppm [4] | pest or weed control at 100 ppm [5]

O=C(Nc1cccc(C(=O)Nc2c(I)cc(C(F)(C(F)(F)F)C(F)(F)C(F)(F)F)cc2I)c1F)c1ccccc1 (stereo not shown) [6-1338]
≥ 70%: pest or weed control at 1 ppm [1] | pest or weed control at 1 ppm [2] | pest or weed control at 100 ppm [3] | pest or weed control at 100 ppm [4] | pest or weed control at 100 ppm [5]

O=C(Nc1cccc(C(=O)Nc2c(Br)cc(C(F)(C(F)(F)F)C(F)(F)F)cc2C(F)(F)F)c1F)c1ccccc1F [6-1575]
≥ 70%: pest or weed control at 1 ppm [1] | pest or weed control at 1 ppm [2] | pest or weed control at 100 ppm [3] | pest or weed control at 100 ppm [4] | pest or weed control at 100 ppm [5]

O=C(Nc1cccc(C(=O)Nc2c(Br)cc(C(F)(C(F)(F)F)C(F)(F)F)cc2C(F)(F)F)c1F)c1ccc(Cl)nc1 [6-1617]
≥ 70%: pest or weed control at 1 ppm [1] | pest or weed control at 1 ppm [2] | pest or weed control at 100 ppm [3] | pest or weed control at 100 ppm [4] | pest or weed control at 100 ppm [5]

O=C(Nc1cccc(C(=O)Nc2c(I)cc(C(F)(C(F)(F)F)C(F)(F)F)cc2C(F)(F)F)c1F)c1ccccc1F [6-1731]
≥ 70%: pest or weed control at 1 ppm [1] | pest or weed control at 1 ppm [2] | pest or weed control at 100 ppm [3] | pest or weed control at 100 ppm [4] | pest or weed control at 100 ppm [5]

O=C(Nc1c(I)cc(C(F)(C(F)(F)F)C(F)(F)F)cc1C(F)(F)F)c1cccc(NC(=O)c2c(F)cccc2F)c1F [6-1752]
≥ 70%: pest or weed control at 1 ppm [1] | pest or weed control at 1 ppm [2] | pest or weed control at 100 ppm [3] | pest or weed control at 100 ppm [4] | pest or weed control at 100 ppm [5]
